Molecules are shown by their SMILES. pIC50: −log10 of the molar value.

Experimental findings from patent US7462717B2, “C6-and C9-substituted chromeno[4,3-c]isoxazoline derivatives and their use as anti-depressants” (Janssen Pharmaceutica N.V., priority 2002, dated 2008) are described below.

One experiment deals with T1, hα2C receptor (Homo sapiens, UniProt P18825).
T1 construct: expressed in transfected cells
T1 sequence (P18825 1-462): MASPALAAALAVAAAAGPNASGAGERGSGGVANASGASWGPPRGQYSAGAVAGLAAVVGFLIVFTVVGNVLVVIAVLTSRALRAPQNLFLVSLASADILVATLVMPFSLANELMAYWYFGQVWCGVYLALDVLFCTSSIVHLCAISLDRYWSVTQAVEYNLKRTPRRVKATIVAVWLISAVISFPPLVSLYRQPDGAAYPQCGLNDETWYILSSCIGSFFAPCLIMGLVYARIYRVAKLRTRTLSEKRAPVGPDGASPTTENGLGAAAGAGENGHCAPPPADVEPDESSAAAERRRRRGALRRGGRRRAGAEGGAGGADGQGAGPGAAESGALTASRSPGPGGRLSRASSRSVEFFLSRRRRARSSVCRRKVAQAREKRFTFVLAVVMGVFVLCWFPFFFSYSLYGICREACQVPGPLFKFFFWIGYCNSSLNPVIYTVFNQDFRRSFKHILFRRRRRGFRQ
Briefly: Radioligand binding experiment for α2C-adrenergic receptor ([3H]-raulwolscine). The note with it: membranes of CHO cells transfected with human α2C receptor; [3H]raulwolscine 1 nM. How it is done:
(§1) The interaction of the compounds of Formula (I) with hα2-receptors and h5-HT-transporters was assessed in in vitro radioligand binding experiments. In general, a low concentration of a radioligand with a high binding affinity for a particular receptor or transporter is incubated with a sample of a tissue preparation enriched in a particular receptor or transporter or with a preparation of cells expressing cloned human receptors in a buffered medium. During the incubation, the radioligand binds to the receptor or transporter. When equilibrium of binding is reached, the receptor bound radioactivity is separated from the non-bound radioactivity, and the receptor- or transporter-bound activity is counted. The interaction of the test compounds with the receptor is assessed in competition binding experiments. Various concentrations of the test compound are added to the incubation mixture containing the receptor- or transporter preparation and the radioligand. The test compound in proportion to its binding affinity and its concentration inhibits binding of the radioligand. The radioligand used for hα2A, hα2B and hα2C receptor binding was [^3H]-raulwolscine and for the h5-HT transporter was [^3H]paroxetine.
(§2) CHO cells, stabile transfected with human adrenergic-α2A-, -α2B or α2C receptor cDNA, were cultured in Dulbecco's Modified Eagle's Medium (DMEM)/Nutrient mixture Ham's F12 (ratio 1:1) (Gibco, Gent-Belgium) supplemented with 10% heat inactivated fetal calf serum (Life Technologies, Merelbeke-Belgium) and antibiotics (100 IU/ml penicillin G, 100 μg/ml streptomycin sulphate, 110 μg/ml pyruvic acid and 100 μg/ml L-glutamine). One day before collection, cells were induced with 5 mM sodiumbutyrate. Upon 80-90% of confluence, cells were scraped in phosphate buffered saline without Ca^2+ and Mg^2+ and collected by centrifugation at 1500×g for 10 min. The cells were homogenised in Tris-HCl 50 mM using an Ultraturrax homogenizer and centrifuged for 10 min at 23,500×g. The pellet was washed once by resuspension and rehomogenization and the final pellet was resuspended in Tris-HCl, divided in 1 ml aliquots and stored at −70° C.
(§3) Membranes were thawed and re-homogenized in incubation buffer (glycylglycine 25 mM, pH 8.0). In a total volume of 500 μl, 2-10 μg protein was incubated with [^3H]raulwolscine (NET-722) (New England Nuclear, USA) (1 nM final concentration) with or without competitor for 60 min at 25° C. followed by rapid filtration over GF/B filter using a Filtermate 196 harvester (Packard, Meriden, Conn.). Filters were rinsed extensively with ice-cold rinsing buffer (Tris-HCl 50 mM pH 7.4). Filter-bound radioactivity was determined by scintillation counting in a Topcount (Packard, Meriden, Conn.) and results were expressed as counts per minute (cpm). Non-specific binding was determined in the presence of 1 μM oxymetazoline for hα2A- and hα2B-receptors and 1 μM spiroxatrine for hα2C receptors.
(§4) Data from assays in the presence of compound were calculated as a percentage of total binding measured in the absence of test compound. Inhibition curves, plotting percent of total binding versus the log value of the concentration of the test compound, were automatically generated, and sigmoidal inhibition curves were fitted using non-linear regression. The pIC50 values of test compounds were derived from individual curves. All compounds according to Formula (I) produced an inhibition at least at the hα2A site (but often also at the hα2B and hα2C sites) and simultaneously at the 5-HT transporter site of more than 50% (PIC50) at a test concentration ranging between 10^−6 M and 10^−9 M in a concentration-dependent manner.

The target of another experiment is T2, hα2A receptor (Homo sapiens, UniProt P08913).
T2 construct: expressed in transfected cells
T2 sequence (P08913 1-465): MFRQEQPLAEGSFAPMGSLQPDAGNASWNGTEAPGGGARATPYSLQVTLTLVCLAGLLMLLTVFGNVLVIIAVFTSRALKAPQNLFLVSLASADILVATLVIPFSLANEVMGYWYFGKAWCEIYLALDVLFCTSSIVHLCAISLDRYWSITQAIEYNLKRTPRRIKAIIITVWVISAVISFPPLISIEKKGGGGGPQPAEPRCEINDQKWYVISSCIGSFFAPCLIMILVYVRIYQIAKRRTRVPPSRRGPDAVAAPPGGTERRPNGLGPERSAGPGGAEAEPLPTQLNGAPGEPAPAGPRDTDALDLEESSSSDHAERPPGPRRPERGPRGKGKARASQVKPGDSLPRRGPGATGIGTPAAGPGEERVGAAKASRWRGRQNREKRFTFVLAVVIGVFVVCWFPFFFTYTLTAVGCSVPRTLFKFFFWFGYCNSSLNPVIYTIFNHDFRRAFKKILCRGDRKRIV
Briefly: Radioligand binding experiment for α2A-adrenergic receptor ([3H]-raulwolscine). The note with it: membranes of CHO cells transfected with human α2A receptor; [3H]raulwolscine 1 nM. How it is done:
as §1, §2, §3, §4

In a further experiment the target is T3, h5-HT transporter (Homo sapiens, UniProt P31645).
T3 construct: Human platelet membranes (Oceanix Biosciences Corporation, Hanover, Md., USA) were thawed; tissue Oceanix Biosciences Corporation; host or cells: human platelet membranes
The experiment can be described thus: Radioligand binding experiment for 5-HT transporter ([3H]paroxetine). Particulars: human platelet membranes; [3H]paroxetine 0.5 nM; read-out: 5-HTT (converted). How it is done:
as §1
Human platelet membranes (Oceanix Biosciences Corporation, Hanover, Md., USA) were thawed, diluted in buffer (Tris-HCl 50 mM, 120 mM NaCl and 5 mM KCl) and quickly (max 3 s) homogenised with an Ultraturrax homogenizer. In a total volume of 250 μL, 50-100 μg protein was incubated with [^3H]paroxetine (NET-869) (New England Nuclear, USA) (0.5 nM final concentration) with or without competitor for 60 min at 25° C. Incubation was stopped by rapid filtration of the incubation mixture over GF/B filters, pre-wetted with 0.1% polyethyleneamine, using a Filtermate 196 harvester (Packard, Meriden, Conn.). Filters were rinsed extensively with ice-cold buffer and radioactivity on the filters was counted in a Topcount liquid scintillation counter (Packard, Meriden, Conn.). Data were expressed as cpm. Imipramine (at 1 μM final concentration) was used to determine the non-specific binding.
as §4

The next experiment concerns the target T4, hα2B receptor (Homo sapiens, UniProt P18089).
T4 construct: expressed in transfected cells
T4 sequence (P18089 1-450): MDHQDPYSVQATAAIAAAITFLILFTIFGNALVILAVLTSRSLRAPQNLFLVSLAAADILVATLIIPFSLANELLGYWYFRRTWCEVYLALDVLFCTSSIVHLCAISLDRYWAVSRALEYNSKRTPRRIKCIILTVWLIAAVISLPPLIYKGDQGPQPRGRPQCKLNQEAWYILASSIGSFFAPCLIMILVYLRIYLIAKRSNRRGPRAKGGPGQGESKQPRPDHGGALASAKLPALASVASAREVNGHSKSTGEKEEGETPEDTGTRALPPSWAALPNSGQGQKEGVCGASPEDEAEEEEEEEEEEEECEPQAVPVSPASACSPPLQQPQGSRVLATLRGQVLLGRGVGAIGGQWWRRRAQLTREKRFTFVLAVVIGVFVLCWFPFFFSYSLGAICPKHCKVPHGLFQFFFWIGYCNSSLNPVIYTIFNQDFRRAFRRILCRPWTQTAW
Briefly: Radioligand binding experiment for α2B-adrenergic receptor ([3H]-raulwolscine). Particulars: membranes of CHO cells transfected with human α2B receptor; [3H]raulwolscine 1 nM. How it is done:
as §1, §2, §3, §4

T3 sequence (P31645 whole entry): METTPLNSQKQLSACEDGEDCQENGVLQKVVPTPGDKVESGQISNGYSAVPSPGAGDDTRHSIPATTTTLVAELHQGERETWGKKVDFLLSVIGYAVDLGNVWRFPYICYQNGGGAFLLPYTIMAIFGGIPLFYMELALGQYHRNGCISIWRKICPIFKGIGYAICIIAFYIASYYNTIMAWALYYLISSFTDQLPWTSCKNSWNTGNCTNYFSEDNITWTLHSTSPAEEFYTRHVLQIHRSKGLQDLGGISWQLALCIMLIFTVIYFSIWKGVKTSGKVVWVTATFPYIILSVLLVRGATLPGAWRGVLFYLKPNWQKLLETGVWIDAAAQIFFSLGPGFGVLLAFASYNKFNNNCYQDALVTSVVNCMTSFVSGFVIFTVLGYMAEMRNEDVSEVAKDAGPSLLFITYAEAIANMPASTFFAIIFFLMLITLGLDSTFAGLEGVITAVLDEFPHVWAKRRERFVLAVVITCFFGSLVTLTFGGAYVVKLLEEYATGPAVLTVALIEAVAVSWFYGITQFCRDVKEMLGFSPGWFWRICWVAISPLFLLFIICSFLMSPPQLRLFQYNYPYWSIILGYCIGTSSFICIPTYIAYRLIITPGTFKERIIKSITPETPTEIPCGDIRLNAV

A word on the pIC50: it is the IC50 on a negative log10 scale, so that one unit is a factor of ten. High values mean a small IC50, low ones a large IC50. As to `COc1cccc2c1OC[C@@H]1C2=NO[C@H]1CN1CCN(C/C(C)=C/c2ccccc2)CC1` (relative stereo) [Compound 6, 6-methoxy-3-[4-(2-methyl-3-phenyl-allyl)-piperazin-1-ylmethyl]-3a,4-dihydro-3H-chromeno[4,3-c]isoxazole], the pIC50 was 8.80 at hα2C receptor, 8.10 at hα2A receptor and 8.70 on hα2B receptor. On h5-HT transporter, the IC50 is 50.1 nM.
For `C/C(=C\c1ccccc1)CN1CCN(C[C@@H]2ON=C3c4cccc(O)c4OC[C@H]32)CC1` (relative stereo) [Compound 7, 3-[4-(2-methyl-3-phenyl-allyl)-piperazin-1-ylmethyl]-3a,4-dihydro-3H-chromeno[4,3-c]isoxazol-6-ol], in that order: 8.70, 8.10, 8.90 and 50.1 nM.
For the molecule `COc1cc2c(c(Nc3ccncc3)c1OC)OC[C@@H]1C2=NO[C@H]1CN1CCN(C/C(C)=C/c2ccc(F)cc2)CC1` (relative stereo) [Compound 21, (3-{4-[3-(4-fluoro-phenyl)-2-methyl-allyl]-piperazin-1-ylmethyl}-7,8-dimethoxy-3a,4-dihydro-3H-chromeno [4,3-c]isoxazol-6-yl)-pyridin-4-yl-amine], the negative logarithm of the IC50 (pIC50) at hα2C receptor was 8.20; at hα2A receptor it was 7.20; on hα2B receptor, 7.80. On h5-HT transporter, the IC50 was 398 nM.
The matching figures for `COc1cc2c(c(N3CCN(C)CC3)c1OC)OC[C@@H]1C2=NO[C@H]1CN1CCN(C/C(C)=C/c2ccccc2)CC1` (single isomer, unassigned) [Compound 2, 7,8-dimethoxy-3-[4-(2-methyl-3-phenyl-allyl)-piperazin-1-ylmethyl]-6-(4-methyl-piperazin-1-yl)-3a,4-dihydro-3H-chromeno [4,3-c]isoxazole]: 9.10, 8.20, 8.80 and 39.8 nM.
Take `COc1cc2c(c(C)c1OC)OC[C@@H]1C2=NO[C@H]1CN1CCN(C/C(C)=C/c2ccccc2)CC1` (single isomer, unassigned) [Compound 3, 7,8-dimethoxy-6-methyl-3-[4-(2-methyl-3-phenyl-allyl)-piperazin-1-ylmethyl]-3a,4-dihydro-3H-chromeno[4,3-c]isoxazole]: the negative logarithm of the IC50 (pIC50) at hα2C receptor was 9.40; on hα2A receptor it was 8.80. Moreover, on h5-HT transporter, the IC50 was 31.6 nM.
As to `CCOC(=O)c1c(OC)c(OC)cc2c1OC[C@@H]1C2=NO[C@H]1CN1CCN(C/C(C)=C/c2ccccc2)CC1` (single isomer, unassigned) [Compound 4, 7,8-dimethoxy-3-[4-(2-methyl-3-phenyl-allyl)-piperazin-1-ylmethyl]-3a,4-dihydro-3H-chromeno[4,3-c]isoxazole-6-carboxylic acid ethyl ester], the pIC50 was 8.90 at hα2C receptor, 8.20 on hα2A receptor and 8.40 at hα2B receptor. Moreover, the IC50 at h5-HT transporter was 63.1 nM.
On to `COC(=O)c1c(OC)c(OC)cc2c1OCC1C2=NOC1CN1CCN(C/C(C)=C/c2ccccc2)CC1` (single isomer, unassigned) [Compound 5], for which the figures for the negative logarithm of the IC50 (pIC50) on hα2C receptor, at hα2A receptor and at hα2B receptor were 8.90, 8.70 and 8.30, respectively. In addition, the IC50 on h5-HT transporter is 158 nM.
In the case of `COCC(=O)OCCOc1cccc2c1OCC1C2=NOC1CN1CCN(CC(C)=Cc2ccccc2)CC1` (single isomer, unassigned) [Compound 24], the pIC50 on hα2C receptor was 7.40; at hα2A receptor, 7.00; at hα2B receptor it was 7.60. Besides, at h5-HT transporter, the IC50 is 31.6 nM.
For `COCC(=O)OCCOc1cccc2c1OCC1C2=NOC1CN1CCN(CC(C)=Cc2ccccc2)CC1` (single isomer, unassigned) [Compound 25], the figures for the negative-log IC50 (pIC50) at hα2C receptor, on hα2A receptor and on hα2B receptor were 8.70, 7.40 and 8.80, respectively. Besides, the IC50 on h5-HT transporter is 316 nM.
On to `COc1cc2c(c(Br)c1OC)OCC1C2=NOC1CN1CCN(C/C(C)=C/c2ccccc2)CC1` (stereo not shown) [Compound 1, 6-Bromo-7,8-dimethoxy-3-[4-(2-methyl-3-phenyl-allyl)-piperazin-1-ylmethyl]-3a,4-dihydro-3H-chromeno[4,3-c]isoxazole], for which the results for the pIC50 on hα2C receptor and on hα2A receptor were 9.00 and 8.70, respectively. For the same molecule, the IC50 on h5-HT transporter is 12.6 nM.
With `COc1cccc2c1C1=NOC(CN3CCN(CC(C)=Cc4ccccc4)CC3)C1CO2` (stereo not shown) [Compound 8], the pIC50 is 8.60 on hα2C receptor, 8.70 at hα2A receptor and 9.00 at hα2B receptor. Further, at h5-HT transporter, the IC50 is 251 nM.
For `CC(=Cc1ccccc1)CN1CCN(CC2ON=C3c4c(O)cccc4OCC32)CC1` (stereo not shown) [Compound 9], in that order: 8.90, 7.60, 8.70 and 63.1 nM.
